Experimental data: patent US10053461B2 (Hoffmann-La Roche Inc., priority 2015, dated 2018)

Test system: HBV DNA
Experiment: HBV DNA assay (real-time qPCR of extracellular HBV DNA, HepG2.2.15 cells)
Type: cell-based
Conditions: Hepatitis B virus, 144 h; Anti HBV DNA production activity in HepG2.2.15 cells, six days
Protocol: The assay employs real-time qPCR (TaqMan) to directly measure extracellular HBV DNA copy number. HepG2.2.15 cells were plated in 96-well microtiter plates. Only the interior wells were utilized to reduce “edge effects” observed during cell culture, the exterior wells were filled with complete medium to help minimize sample evaporation. On the following day, the HepG2.2.15 cells were washed and the medium was replaced with complete medium containing various concentrations of a test compound in triplicate. 3TC was used as the positive control, while media alone was added to cells as a negative control (virus control, VC). Three days later, the culture medium was replaced with fresh medium containing the appropriately diluted drug. Six days following the initial administration of the test compound, the cell culture supernatant was collected, treated with pronase and then used in a real-time qPCR/TaqMan assay to determine HBV DNA copy numbers. Antiviral activity was calculated from the reduction in HBV DNA levels (IC50).

How did the IC50 turn out when `COc1cc2c(cc1OCc1ccccc1)[C@H]1CCC(C)(C)[C@H]1n1cc(C(=O)O)c(=O)cc1-2` (relative stereo) [Example 3, Cis-11-(benzyloxy)-10-methoxy-3,3-dimethyl-7-oxo-1,2,3,3a,7,12b-hexahydrocyclopenta[c]pyrido[2,1-a]isoquinoline-6-carboxylic acid] was run?
Its IC50 is 40 nM.

Which IC50 does the source give for `COCCCOc1cc2c(cc1Cl)-c1cc(=O)c(C(=O)O)cn1[C@@H]1CCCCC[C@H]21` (relative stereo) [Example 28, cis-13-chloro-12-(3-methoxypropoxy)-2-oxo-2,5a,6,7,8,9,10,10a-octahydrocyclohepta[c]pyrido[2,1-a]isoquinoline-3-carboxylic acid] here?
Its IC50 is less than 32 nM.

Test system: HBsAg
Experiment: not given
Conditions: HBsAg secretion reduced by 50% vs no drug control, HepG2.2.15 cells

How did the IC50 turn out when `COc1cc2c(cc1OCc1ccccc1)[C@H]1CCC(C)(C)[C@H]1n1cc(C(=O)O)c(=O)cc1-2` [Example 4, (3aS,12bR)-11-(benzyloxy)-10-methoxy-3,3-dimethyl-7-oxo-1,2,3,3a,7,12b-hexahydrocyclopenta[c]pyrido[2,1-a]isoquinoline-6-carboxylic acid] was run?
The IC50 was 3 nM.

Test system: HBsAg
Experiment: microbe, parasite or virus in culture
Conditions: Hepatitis B virus, HepG2.2.15
Protocol: HepG2.2.15 cells (Acs et al. Proc Natl Acad Sci USA, 84, (1987), 4641-4), a constitutively HBV-expressing cell line were cultured in DMEM+Glutamax-I medium (Invitrogen, Carlsbad, Calif., USA), supplemented with 10% fetal bovine serum (Invitrogen) and G418 (Invitrogen) at a final concentration of 200 mg/L and maintained in 5% CO2 at 37° C.
HepG2.2.15 cells were seeded in duplicate into white, 96-well plates at 1.5×10^4 cells/well. The cells were treated with a three-fold serial dilution series of the compounds in DMSO. The final DMSO concentration in all wells was 1% and DMSO was used as no drug control.
The HBsAg chemiluminescence immunoassay (CLIA) kit (Autobio Diagnostics Co., Zhengzhou, China, Catalog number: CL0310-2) was used to measure the levels of secreted HBV antigens semi-quantitatively. For the detection 50 μL/well culture supernatant was used and HBsAg was quantified using HBsAg chemiluminescence immunoassay (CLIA) kit (Autobio Diagnostics Co., Zhengzhou, China, Catalog number: CL0310-2), 50 μL of the supernatant was transferred to the CLIA assay plate and 50 μL of enzyme conjugate reagent was added into each well. The plates were sealed and gently agitated for 1 hour at room temperature. The supernatant-enzyme-mixture was discarded and wells were washed 6 times with 300 μL of PBS. The residual liquid was removed by plating the CLIA plate right side down on absorbent tissue paper. 25 μL of substrates A and B were added to each well. Luminance was measured using a luminometer (Mithras LB 940 Multimode Microplate Reader) after 10 minutes incubation. Dose-response curves were generated and the IC50 value was extrapolated by using the E-WorkBook Suite (ID Business Solutions Ltd., Guildford, UK). The IC50 was defined as the compound concentration (or conditioned media log dilution) at which HBsAg secretion was reduced by 50% compared to the no drug control.
The compounds of the present invention were tested for their activity to inhibit HBsAg as described herein.

Which IC50 does the source give for `COc1cc2c(cc1OCc1ccccc1)[C@H]1CCC(C)(C)[C@H]1n1cc(C(=O)O)c(=O)cc1-2` (relative stereo) [Example 3, Cis-11-(benzyloxy)-10-methoxy-3,3-dimethyl-7-oxo-1,2,3,3a,7,12b-hexahydrocyclopenta[c]pyrido[2,1-a]isoquinoline-6-carboxylic acid] here?
The IC50 was 3 nM.

How did the IC50 turn out when `COc1cc2c(cc1OCc1ccccc1)[C@H]1CCCC[C@@H]1n1cc(C(=O)O)c(=O)cc1-2` (racemic) [Example 31, Trans-12-benzyloxy-11-methoxy-8-oxo-1,2,3,4,4a,13b-hexahydropyrido[1,2-f]phenanthridine-7-carboxylic acid] was run?
Its IC50 is 120 nM.

For `COc1cc2c(cc1OCCCC(=O)O)[C@H]1CCC(C)(C)[C@H]1n1cc(C(=O)O)c(=O)cc1-2` (relative stereo) [Example 19, Cis-11-(3-carboxypropoxy)-10-methoxy-3,3-dimethyl-7-oxo-1,2,3,3a,7,12b-hexahydrocyclopenta[c]pyrido[2,1-a]isoquinoline-6-carboxylic acid], which IC50 is on record?
Its IC50 is 505 nM.

For `COCCCOc1cc2c(cc1Cl)-c1cc(=O)c(C(=O)O)cn1[C@@H]1CCCCC[C@H]21` (relative stereo) [Example 28, cis-13-chloro-12-(3-methoxypropoxy)-2-oxo-2,5a,6,7,8,9,10,10a-octahydrocyclohepta[c]pyrido[2,1-a]isoquinoline-3-carboxylic acid], which IC50 is on record?
Its IC50 is 3 nM.

With `COc1cc2c(cc1OCC(C)C)[C@H]1CCC(C)(C)[C@H]1n1cc(C(=O)O)c(=O)cc1-2` (relative stereo) [Example 9, Cis-11-isobutoxy-10-methoxy-3,3-dimethyl-7-oxo-1,2,3,3a,7,12b-hexahydrocyclopenta[c]pyrido[2,1-a]isoquinoline-6-carboxylic acid] as the compound, how does the IC50 read?
The IC50 was 1 nM.

`COc1cc2c(cc1OCCCO)[C@H]1CCC(C)(C)[C@H]1n1cc(C(=O)O)c(=O)cc1-2` (relative stereo) [Example 13, Cis-11-(3-hydroxypropoxy)-10-methoxy-3,3-dimethyl-7-oxo-1,2,3,3a,7,12b-hexahydrocyclopenta[c]pyrido[2,1-a]isoquinoline-6-carboxylic acid] was tested. Which IC50 did it give?
The IC50 was 5 nM.

With `COc1cc2c(cc1OCC1CC1)[C@H]1CCC(C)(C)[C@H]1n1cc(C(=O)O)c(=O)cc1-2` (relative stereo) [Example 10, Cis-11-(cyclopropylmethoxy)-10-methoxy-3,3-dimethyl-7-oxo-1,2,3,3a,7,12b-hexahydrocyclopenta[c]pyrido[2,1-a]isoquinoline-6-carboxylic acid] as the compound, how does the IC50 read?
Its IC50 is 1 nM.

`COc1cc2c(cc1OCCCS(C)(=O)=O)[C@H]1CCC(C)(C)[C@H]1n1cc(C(=O)O)c(=O)cc1-2` (relative stereo) [Example 21, Cis-10-methoxy-3,3-dimethyl-11-(3-(methylsulfonyl)propoxy)-7-oxo-1,2,3,3a,7,12b-hexahydrocyclopenta[c]pyrido[2,1-a]isoquinoline-6-carboxylic acid] was tested. Which IC50 did it give?
The IC50 was 17 nM.

With `COCCOc1cc2c(cc1OC)-c1cc(=O)c(C(=O)O)cn1[C@H]1[C@@H]2CCC1(C)C` (relative stereo) [Example 11, Cis-10-methoxy-11-(2-methoxyethoxy)-3,3-dimethyl-7-oxo-1,2,3,3a,7,12b-hexahydrocyclopenta[c]pyrido[2,1-a]isoquinoline-6-carboxylic acid] as the compound, how does the IC50 read?
The IC50 was 4 nM.

For `COCCCOc1cc2c(cc1OC)-c1cc(=O)c(C(=O)O)cn1[C@@H]1CCSC[C@@H]21` (racemic) [Example 35, Trans-11-methoxy-12-(3-methoxypropoxy)-8-oxo-1,3,4,4a,8,13b-hexahydropyrido[2,1-a]thiopyrano[4,3-c]isoquinoline-7-carboxylic acid], which IC50 is on record?
The IC50 was 110 nM.

For `COCCCOc1cc2c(cc1OC)-c1cc(=O)c(C(=O)O)cn1[C@H]1[C@H]2CCC1(C)C` (relative stereo) [Example 1, Trans-10-methoxy-11-(3-methoxypropoxy)-3,3-dimethyl-7-oxo-1,2,3,3a,7,12b-hexahydrocyclopenta[c]pyrido[2,1-a]isoquinoline-6-carboxylic acid], which IC50 is on record?
The IC50 was 10 nM.

With `COc1cc2c(cc1OCCCCCCNC(C)=O)[C@H]1CCC(C)(C)[C@H]1n1cc(C(=O)O)c(=O)cc1-2` (relative stereo) [Example 25, Cis-11-((6-acetamidohexyl)oxy)-10-methoxy-3,3-dimethyl-7-oxo-1,2,3,3a,7,12b-hexahydrocyclopenta[c]pyrido[2,1-a]isoquinoline-6-carboxylic acid] as the compound, how does the IC50 read?
The IC50 was 6 nM.
